Key:
Aci01347 [1] = molecular target: T1, Aci01347 (Acinetobacter baumannii, UniProt D0C9N4); experiment: competition with […]-choline uptake in E. coli MKH13 expressing Aci01347; format: cell-based; conditions: read-out: % inhibition at 0.5 mM
T1 construct: gene HMPREF0010_01347; N-terminal His6 tag, pBAD/HisA; expressed in E. coli MKH13 (no compatible solute transporters)
T1 sequence (D0C9N4 1-550): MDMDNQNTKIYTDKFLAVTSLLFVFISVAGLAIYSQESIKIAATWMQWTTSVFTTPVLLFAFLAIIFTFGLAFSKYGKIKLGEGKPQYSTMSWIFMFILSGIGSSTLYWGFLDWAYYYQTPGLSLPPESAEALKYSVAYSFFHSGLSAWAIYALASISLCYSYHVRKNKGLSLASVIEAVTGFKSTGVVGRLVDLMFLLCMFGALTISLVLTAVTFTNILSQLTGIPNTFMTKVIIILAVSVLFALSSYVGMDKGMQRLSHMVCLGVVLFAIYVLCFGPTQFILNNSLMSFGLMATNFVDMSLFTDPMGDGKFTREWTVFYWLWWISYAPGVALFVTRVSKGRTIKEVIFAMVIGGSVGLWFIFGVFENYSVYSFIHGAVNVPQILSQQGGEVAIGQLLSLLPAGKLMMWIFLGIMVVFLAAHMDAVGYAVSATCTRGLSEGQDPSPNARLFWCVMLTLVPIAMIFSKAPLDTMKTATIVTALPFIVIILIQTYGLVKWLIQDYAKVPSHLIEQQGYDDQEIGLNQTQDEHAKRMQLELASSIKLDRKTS

Aci01347 [2] = molecular target: T1, Aci01347; experiment: […]-choline uptake in E. coli MKH13 expressing Aci01347; format: cell-based; conditions: 500 µM substrate; KPi 25 mM pH 7.5, 0.2 osmol/kg, 37 °C, glucose-energised cells; labelled compound

SMILES | inhibition at 500 µM (Aci01347 [1]) | [14C]-choline uptake in E. coli MKH13 expressing Aci01347 (Aci01347 [2])
O=C(O)[C@@H]1CCCN1 [proline] | 4.6% | –
CC1=NCC[C@@H](C(=O)O)N1 [ectoine] | 9.2% | –
C[N+](C)(C)CC(=O)[O-] [glycine betaine] | 14.5% | –
C[N+]1(C)CCC[C@H]1C(=O)[O-] [proline betaine] | 2.4% | –
C[N+](C)(C)CCO [choline, 2-hydroxyethyl trimethylammonium chloride] | – | These data demonstrate that Aci01347 translocates choline.
